Reference: US7998460B2, “Prevention of deficits in neurogenesis with anti-inflammatory agents” (The Board of Trustees of the Leland Stanford Junior …, priority 2003, dated 2011)

Tests used:
[1] = tested on: adult hippocampus-derived neural precursor cells; assay: In vitro neuronal differentiation (doublecortin) of hippocampal neural progenitor cells, 60 hours; assay type: cell-based, rat; details: 60 hours differentiation
Source text: Neuroinflammation could inhibit neurogenesis by a variety of mechanisms, including stimulation of the HPA axis with subsequent elevation of gluccocorticoids, alterations in the relationships between progenitor cells and cells of the neuro-vasculature, or direct effects of activated microglia on the precursor cells. To determine the extent to which microglial activation might directly affect neural stem/progenitor cells, microglia were stimulated in vitro with LPS. LPS is a potent activator of microglia and up-regulates the elaboration of pro-inflammatory cytokines, including IL-6 and TNF-α. LPS-stimulated or resting microglia were then co-cultured with normal neural stem cells from the hippocampus under conditions that typically stimulate the differentiation of 30 to 40% of the progenitor cells into immature Dcx-expressing neurons (normalized to a value of 1 in FIG. 2A, control). Neurogenesis in the presence of microglia was assessed as the increase or decrease in Dcx-expressing cells relative to control. Co-culture with activated, but not resting, microglia decreased in vitro neurogenesis to approximately half of control levels (FIG. 2A). LPS added directly to precursor cells had no effect on neurogenesis.
To determine if this effect was due to soluble factors or due to cell-cell contact, hippocampal precursor cells were differentiated in the presence of media pre-conditioned by resting or activated microglia.
Activated microglia produce the potent pro-inflammatory cytokines interleukin-1β (IL-1β), tumor necrosis factor-α (TNF-α), interferon-γ (INF-γ) and interleukin-6 (IL-6). Progenitor cells were allowed to differentiate in the presence of each cytokine and the relative expression of Dcx was scored after 60 hours. […] Addition of neutralizing anti-IL-6 antibody to CM from activated microglia was able to fully restore in vitro neurogenesis (FIG. 2A). This implicated IL-6 as a key inhibitor of neurogenesis in microglial CM. […] In contrast to neurogenesis, gliogenesis was unaffected by IL-6 exposure as indicated by the lack of change in the number of cells expressing the astrocyte (glial fibrillary acidic protein, GFAP) or early oligodendrocyte (NG2) markers relative to control cultures (FIG. 2E). The hippocampal precursors used in this study do express the IL-6 receptor, as confirmed by RT-PCR (FIG. 5).
Progenitor Cell Culture Adult hippocampus-derived neural precursor cells were isolated from adult rat hippocampus and cultured as previously described. Briefly, adult female Fisher-344 rats were deeply anesthetized with sodium pentobarbital and were dissected immediately. Hippocampi were enzymatically dissociated with papain (2.5 U/ml; Worthington, Freehold, N.J.)-dispase II (1 U/ml; Boehringer Mannheim, Indianapolis, Ind.)-DNase I (250 U/ml, Worthington) solution. Digested tissue was then washed with DMEM-10% fetal calf serum (FCS) and subsequently mixed with PBS-equilibrated Percoll solution to a final concentration of 35% Percoll. The Percoll solution was made by mixing nine parts of Percoll (Amersham Pharmacia Biotech, Uppsala, Sweden) with one part of 10× PBS. The cell suspension was then fractionated by centrifugation for 10 min at 1000×gravity. Floating myelin and tissue debris were discarded and the cell pellet re-suspended in 65% Percoll solution and fractionated again by centrifugation for 10 min at 1000×g. The floating neural precursors were collected, washed free of Percoll, and plated onto poly-L-ornithine/laminin-coated dishes in DMEM/F12 (1:1) containing 10% FCS medium for 24 hrs; then medium was replaced with serum-free growth medium consisting of DMEM/F12 (1:1) supplemented with N2 supplement (Life Technologies, Gaithersburg, Md.) and 20 ng/ml of human recombinant FGF-2 (Peprotech, Rocky Hill, N.J.). Cell lines were labeled via infection with replication deficient GFP-expressing recombinant retrovirus LZRS-CAMut4GFP. […]

[2] = Sickness behavior after LPS in rats; assay type: in vivo, rat; details: LPS 1 mg/Kg i.p. one time
Description: LPS exposure. Bacterial lipopolysaccharide (LPS, Sigma, St Louis, Mo.) was administered in sterile saline by intraperitoneal injection at a dose of 1 mg/Kg one time. This caused mild sickness behavior (decreased grooming, decreased locomotor activity, increased piloerection) for approximately 2 days, resolving by the 3rd day. The dose of LPS chosen causes mild sickness behavior in rats that resolves within 1-2 days; the dose of LPS used to induce endotoxic shock is 10-fold higher than that used in the present study.

lipopolysaccharide [LPS]
effect on in vitro neurogenesis (Dcx-expressing cells relative to control) [1]: no effect
duration of mild sickness behavior [2]: approximately 2 days
